Test system: Glioma cells
Assay: Glioma cell kill (presto blue) after d9-THC pre-treatment and PDT with 14C PDC
Type: cell-based
Conditions: 40 μM d9-THC, no PDT
Description: Glioma cells were treated with delta9-tetrahydrocannabinol (“d9-THC”) for 24 hours prior to treatment with 14C PDC and light activated. Five concentrations of d9-THC were used (0, 5, 10, 20, 40 μM). As a significant effect was only observed with a d9-THC concentration of 40 μM, only the results obtained at this concentration are shown (see FIG. 1). After 24 hours, cells were treated with 14C PDC for 4 hours, PDT was performed using green light (20 J/cm^2) and plates were incubated overnight for presto blue on the following day. The PDT dose used was decreased to induce 10-15% cell kill in order to highlight any additive/synergistic effect of the combination that might otherwise be masked if a higher dose had been used.
Absolute cell kill values are shown with error bars representing standard deviations between wells. The hypothetical additive effect represents the hypothetical cell kill percentage had the combined effect merely been additive. Reading from left to right in FIG. 1: the first bar is the control; the second bar is d9-THC only; the third bar is light activated 14C PDC only; the fourth bar is hypothetical cell kill percentage of d9-THC combined with 14C PDC light activated; and the fifth bar is PDT (light activated 14C PDC) combined with the tested cannabinoid. PDT alone (light activated 14C PDC) induced 10% cell kill. 40 μM of d9-THC induced 10% cell kill.

CCCCCc1cc(O)c2c(c1)OC(C)(C)[C@@H]1CCC(C)=C[C@@H]21 [d9-THC, delta9-tetrahydrocannabinol]
cell kill, d9-THC only: 10%

Source: US11793818B2, “Method for treating conditions associated with hyperproliferating cells comprising combined administration of a cannabinoid receptor agonist and radiation therapy” (Theralase Technologies, Inc., priority 2018, dated 2023)
